Patent US8395037B2, “Pharmaceutical compositions for treating/preventing motor organ diseases” (Mitsubishi Corporation, priority 2005, dated 2013)
Each block holds one compound with its values, some of them ahead of it.

Key:
[1] = Lubricating effect: pendulum-type dynamic friction coefficient measurement; type: physicochemical; conditions: for Dynamic friction coefficient: room temperature, mean of three
Protocol: Lubricating effect of fullerene was examined using three different solutions. 20 ml each of the solutions of (A) osteoarthritis patient-derived synovial fluid, (B) 50% polyethylene glycol solution, and (C) joint function-improving agent (hyaluronic acid formulation) were prepared, and dispensed into two tubes at 10 ml each. One 10 ml solution was mixed with fullerene (C60) to adjust the final concentration to 1.0 μM. The other 10 ml solution was used as a control solution. The dynamic friction coefficients of the respective solutions at room temperature were measured three times by a pendulum-type dynamic friction coefficient measuring apparatus (Japan Lubricating Oil Society), and the mean values were calculated. The dynamic friction coefficients were compared between the fullerene solutions and the control solutions.

proteoglycan = test: Proteoglycan concentration in synovial fluid of osteoarthritis model knee joints (ELISA); type: in vivo, rabbit; conditions: sequential measurement
Protocol: (§1) Sequential biochemical examinations of blood and synovial fluid were also performed (pre-administration and fourth- and eighth-week post-administration of water-solubilized fullerene). The observed biochemical examination items were (A) hepatic function (GOT and GPT), renal function (urea nitrogen and creatinine), and electrolytes (Na, K, and Cl), (B) extracellular matrix-degrading enzyme production ability (MMP-1, 3, and 13), and (C) cartilage matrix-synthesizing ability (proteoglycan). The items of (A) were measured by commercially available testing equipments and items of (B) and (C) were measured by ELISA method.

MMP-3 = MMP-3 concentration in synovial fluid of osteoarthritis model knee joints (ELISA); type: in vivo, rabbit; conditions: various concentrations, sequential measurement, versus control knees
Protocol: as §1

[2] = General condition, organ histology and blood biochemical examination during eight-week administration; type: in vivo, rabbit
Protocol: In particular, in the eight-week administration, the inhibitory effect of water-solubilized fullerene on cartilage degeneration was more remarkable in the 1.0 μM and 10.0 μM administered groups rather than the 0.1 μM administered group. […] During the eight-week test period, decrease in body weight, insufficient feeding, hematuria, or abnormal hair coat was not observed in the experimental animals.
as §1

[3] = tested on: osteoarthritis model (rabbit); test: Comparative test of water-solubilized fullerene and hyaluronic acid formulation in osteoarthritis model; type: in vivo; conditions: 1.0 μM, 2.0 ml/rabbit, eighth week; compared with hyaluronic acid formulation
Protocol: The medicinal effect of water-solubilized fullerene (cyclodextrin clathrate C60) was examined comparatively with a known articular function-improving agent (the hyaluronic acid formulation Suvenyl (registered trademark)). Specifically, the effects at the eighth week after the start of treatment on rabbits in the following five groups (A) to (E) were examined. Each group consisted of four rabbits and the administration dosage was 2.0 ml/rabbit in all groups.
Test groups: (A) Sham-operation, group administered with Suvenyl; (B) Sham-operation, group administered with 50% polyethylene glycol; (C) Osteoarthritis model, group administered with 1.0 μM water-solubilized fullerene; (D) Osteoarthritis model, group administered with 50% Suvenyl; (E) Osteoarthritis model, group administered with 1.0 μM water-solubilized fullerene and Suvenyl.

[4] = tested on: osteoarthritis model animals (rabbits); test: Osteoarthritis rabbit model, intraarticular water-solubilized fullerene 0.1 to 40.0 μM, safranin O cartilage degeneration; type: in vivo; conditions: for Efficacy on cartilage degeneration (rabbits responding): eight-week administration
Protocol: Various concentrations (0.1, 1.0, 10.0, or 40.0 μM) of water-solubilized fullerene (cyclodextrin clathrate C60) was injected into the right knee joints of osteoarthritis model animals (rabbits), and solvent alone was injected into the left knee joints as controls intraarticularly once a week. On the fourth or eighth week after the start of administration, the knees were dissected and stained with safranin O, to compare the degree of cartilage degeneration of medial and lateral tibia.
As described above, the therapeutic effect of the four-week or eight-week repetitive administration with water-solubilized fullerene was confirmed. Therefore, the therapeutic effect of a single administration of water-solubilized fullerene was also examined. Immediately after the preparation of an osteoarthritis rabbit model, a single dose of water-solubilized fullerene was administered. On the eighth week, articular cartilage tissue samples were prepared, and the therapeutic effect was examined.

[5] = 1 μM in 50% polyethylene glycol
[6] = 1 μM in hyaluronic acid formulation
[7] = 1 μM in osteoarthritis patient-derived synovial fluid

Compound: c12c3c4c5c1c1c6c7c2c2c8c3c3c9c4c4c%10c5c5c1c1c6c6c%11c7c2c2c7c8c3c3c8c9c4c4c9c%10c5c5c1c1c6c6c%11c2c2c7c3c3c8c4c4c9c5c1c1c6c2c3c41 [C60, fullerene (C60)]
Friction coefficient decreasing rate to control solution [1, 5]: 25% | Dynamic friction coefficient [1, 5]: 0.104 | Friction coefficient decreasing rate to control solution [1, 6]: 42% | Dynamic friction coefficient [1, 6]: 0.116 | Friction coefficient decreasing rate to control solution [1, 7]: 37% | Dynamic friction coefficient [1, 7]: 0.111

Hepatic function, renal function, electrolyte balance ([2]; pre-administration, fourth and eighth week post-administration): not significantly changed
Compound: cyclodextrin clathrate C60 [water-solubilized fullerene]
Proteoglycan concentration in synovial fluid (proteoglycan): not clear | MMP-3 concentration in synovial fluid (MMP-3): not clear | Decrease in body weight, insufficient feeding, hematuria, abnormal hair coat ([2]; eight-week test period): not observed | Optical microscopic observation of organs other than the joints (brain, lung, liver, kidney, adrenal, testis) ([2]; eight-week test period): no findings showing degeneration in the respective tissues | Inhibitory effect on the production of cartilage matrix-degrading enzymes (MMPs) [3]: more remarkable effects than the hyaluronic acid formulation | Producing/maintaining effect of proteoglycan [3]: more remarkable effects than the hyaluronic acid formulation | Cartilage degeneration inhibitory effect across doses ([4]; 0.1 μM to 40 μM, four-week administration): almost equivalent | Efficacy on cartilage degeneration (rabbits responding) ([4]; 0.1 μM): a mild efficacy in all four rabbits | Efficacy on cartilage degeneration (rabbits responding) ([4]; 1.0 μM): a moderate efficacy in two rabbits and a remarkable efficacy in one rabbit out of a total of four | Efficacy on cartilage degeneration (rabbits responding) ([4]; 10.0 μM): a remarkable efficacy in three rabbits out of a total of four | Efficacy on cartilage degeneration (rabbits responding) ([4]; 40.0 μM): a mild efficacy in one rabbit and moderate efficacy in another rabbit out of a total of three | Inhibitory effect on articular cartilage degeneration ([4]; 0.1, 1.0, 10.0 or 40.0 μM intraarticular once a week, four-week and eight-week administration): confirmed at the respective concentrations | Inhibitory effect on cartilage degeneration after single administration ([4]; single dose immediately after model preparation, eighth week, versus control knees): no clear inhibitory effect on cartilage degeneration was observed
